Experimental data: ChEMBL document CHEMBL3044826, “Design, synthesis and biological evaluation of some novel substituted 2-mercapto-3-phenethylquinazolines as antitumor agents” (2013)

Legend:
Format in all cases: functional
[1] = tested on: KM12; test: Cytotoxicity against Homo sapiens (human) KM12 cells assessed as growth inhibition at 10 uM after 48 hr by coulter counter analysis; details: KM12, 48 h, read-out: GI
[2] = tested on: MDA-MB-468; test: Cytotoxicity against Homo sapiens (human) MDA-MB-468 cells assessed as growth inhibition at 10 uM after 48 hr by coulter counter analysis; details: MDA-MB-468, 48 h, read-out: GI
[3] = tested on: OVCAR-3; test: Cytotoxicity against Homo sapiens (human) OVCAR3 cells assessed as growth inhibition at 10 uM after 48 hr by coulter counter analysis; details: OVCAR-3, 48 h, read-out: GI
[4] = tested on: COLO 205; test: Cytotoxicity against Homo sapiens (human) COLO205 cells assessed as growth inhibition at 10 uM after 48 hr by coulter counter analysis; details: COLO 205, 48 h, read-out: GI
[5] = tested on: HT-29; test: Cytotoxicity against Homo sapiens (human) HT-29 cells assessed as growth inhibition at 10 uM after 48 hr by coulter counter analysis; details: HT-29, 48 h, read-out: GI
[6] = tested on: OVCAR-8; test: Cytotoxicity against Homo sapiens (human) OVCAR8 cells assessed as growth inhibition at 10 uM after 48 hr by coulter counter analysis; details: OVCAR-8, 48 h, read-out: GI
[7] = tested on: HCT-116; test: Cytotoxicity against Homo sapiens (human) HCT116 cells assessed as growth inhibition at 10 uM after 48 hr by coulter counter analysis; details: HCT-116, 48 h, read-out: GI
[8] = tested on: OVCAR-5; test: Cytotoxicity against Homo sapiens (human) OVCAR5 cells assessed as growth inhibition at 10 uM after 48 hr by coulter counter analysis; details: OVCAR-5, 48 h, read-out: GI
[9] = tested on: ACHN; test: Cytotoxicity against Homo sapiens (human) ACHN cells assessed as growth inhibition at 10 uM after 48 hr by coulter counter analysis; details: read-out: GI
[10] = tested on: HCC 2998; test: Cytotoxicity against Homo sapiens (human) HCC2998 cells assessed as growth inhibition at 10 uM after 48 hr by coulter counter analysis; details: HCC 2998, 48 h, read-out: GI
[11] = tested on: MDA-MB-435; test: Cytotoxicity against Homo sapiens (human) MDA-MB-435 cells assessed as growth inhibition at 10 uM after 48 hr by coulter counter analysis; details: MDA-MB-435, 48 h, read-out: GI
[12] = tested on: NCI-H322M; test: Cytotoxicity against Homo sapiens (human) NCI-H322M cells assessed as growth inhibition at 10 uM after 48 hr by coulter counter analysis; details: read-out: GI
[13] = tested on: SF-295; test: Cytotoxicity against Homo sapiens (human) SF295 cells assessed as growth inhibition at 10 uM after 48 hr by coulter counter analysis; details: SF-295, 48 h, read-out: GI
[14] = tested on: MCF7; test: Cytotoxicity against Homo sapiens (human) MCF7 cells assessed as growth inhibition at 10 uM after 48 hr by coulter counter analysis; details: MCF7, 48 h, read-out: GI
[15] = tested on: TK-10; test: Cytotoxicity against Homo sapiens (human) TK10 cells assessed as growth inhibition at 10 uM after 48 hr by coulter counter analysis; details: TK-10, 48 h, read-out: GI
[16] = tested on: SN12C; test: Cytotoxicity against Homo sapiens (human) SN12C cells assessed as growth inhibition at 10 uM after 48 hr by coulter counter analysis; details: read-out: GI
[17] = tested on: SK-MEL-28; test: Cytotoxicity against Homo sapiens (human) SK-MEL-28 cells assessed as growth inhibition at 10 uM after 48 hr by coulter counter analysis; details: SK-MEL-28, 48 h, read-out: GI
[18] = tested on: SF-268; test: Cytotoxicity against Homo sapiens (human) SF268 cells assessed as growth inhibition at 10 uM after 48 hr by coulter counter analysis; details: SF-268, 48 h, read-out: GI
[19] = tested on: HCT-15; test: Cytotoxicity against Homo sapiens (human) HCT15 cells assessed as growth inhibition at 10 uM after 48 hr by coulter counter analysis; details: HCT-15, 48 h, read-out: GI
[20] = tested on: SW-620; test: Cytotoxicity against Homo sapiens (human) SW620 cells assessed as growth inhibition at 10 uM after 48 hr by coulter counter analysis; details: SW-620, 48 h, read-out: GI
[21] = tested on: Malme-3M; test: Cytotoxicity against Homo sapiens (human) MALME-3M cells assessed as growth inhibition at 10 uM after 48 hr by coulter counter analysis; details: read-out: GI
[22] = tested on: DU-145; test: Cytotoxicity against Homo sapiens (human) DU145 cells assessed as growth inhibition at 10 uM after 48 hr by coulter counter analysis; details: DU-145, 48 h, read-out: GI
[23] = tested on: OVCAR-4; test: Cytotoxicity against Homo sapiens (human) OVCAR4 cells assessed as growth inhibition at 10 uM after 48 hr by coulter counter analysis; details: OVCAR-4, 48 h, read-out: GI
[24] = tested on: SF-539; test: Cytotoxicity against Homo sapiens (human) SF539 cells assessed as growth inhibition at 10 uM after 48 hr by coulter counter analysis; details: SF-539, 48 h, read-out: GI
[25] = tested on: MDA-MB-231; test: Cytotoxicity against Homo sapiens (human) MDA-MB-231 cells assessed as growth inhibition at 10 uM after 48 hr by coulter counter analysis; details: MDA-MB-231, 48 h, read-out: GI
[26] = tested on: SNB-19; test: Cytotoxicity against Homo sapiens (human) SNB19 cells assessed as growth inhibition at 10 uM after 48 hr by coulter counter analysis; details: SNB-19, 48 h, read-out: GI
[27] = tested on: IGROV-1; test: Cytotoxicity against Homo sapiens (human) IGROV1 cells assessed as growth inhibition at 10 uM after 48 hr by coulter counter analysis; details: IGROV-1, 48 h, read-out: GI
[28] = tested on: SK-OV-3; test: Cytotoxicity against Homo sapiens (human) SKOV3 cells assessed as growth inhibition at 10 uM after 48 hr by coulter counter analysis; details: SK-OV-3, 48 h, read-out: GI
[29] = tested on: BT-549; test: Cytotoxicity against Homo sapiens (human) BT549 cells assessed as growth inhibition at 10 uM after 48 hr by coulter counter analysis; details: BT-549, 48 h, read-out: GI
[30] = tested on: A549; test: Cytotoxicity against Homo sapiens (human) A549 cells assessed as growth inhibition at 10 uM after 48 hr by coulter counter analysis; details: A549, 48 h, read-out: GI
[31] = tested on: LOX IMVI; test: Cytotoxicity against Homo sapiens (human) LOXIMVI cells assessed as growth inhibition at 10 uM after 48 hr by coulter counter analysis; details: read-out: GI
[32] = tested on: PC-3; test: Cytotoxicity against Homo sapiens (human) PC3 cells assessed as growth inhibition at 10 uM after 48 hr by coulter counter analysis; details: PC-3, 48 h, read-out: GI
[33] = tested on: M14; test: Cytotoxicity against Homo sapiens (human) M14 cells assessed as growth inhibition at 10 uM after 48 hr by coulter counter analysis; details: M14, 48 h, read-out: GI
[34] = tested on: U-251; test: Cytotoxicity against Homo sapiens (human) U251 cells assessed as growth inhibition at 10 uM after 48 hr by coulter counter analysis; details: U-251, 48 h, read-out: GI

Measured: inhibition of growth at 10 µM

CSc1nc2ccccc2c(=O)n1CCc1ccccc1
19%: [4]
21%: [23]
30%: [25]
39%: [19]
12%: [20] | [30] | [34]
37%: [7]
11%: [31]
24%: [27]
84%: [2]
47%: [11]
33%: [32]
34%: [9] | [14]
28%: [1]
< 10%: all other assays above

O=C(CSc1nc2ccccc2c(=O)n1CCc1ccccc1)c1ccccc1
19%: [7]
15%: [6]
14%: [2] | [21] | [32]
18%: [13] | [30]
11%: [25] | [34]
< 10%: all other assays above

COc1ccc(-n2c(S)nnc2CSc2nc3ccccc3c(=O)n2CCc2ccccc2)cc1
25%: [19]
30%: [32]
28%: [14]
20%: [25]
16%: [27]
11%: [34]
38%: [2]
12%: [13]
< 10%: all other assays above

O=c1c2ccccc2[nH]c(=S)n1CCc1ccccc1
18%: [7]
22%: [2]
13%: [13] | [32]
31%: [14]
< 10%: all other assays above
